Laboratory results reported in DBAASP.
Converted amounts (≈) assume the structure as drawn.

What was measured:
Assay in all cases: ≥ marks a high value that may be exact or a test limit, other limits are often not marked, values filed in µg/mL are converted to µM
[1] = test system: Staphylococcus aureus
[2] = test system: Acinetobacter calcoaceticus
[3] = test system: Pseudomonas aeruginosa
[4] = test system: Streptococcus agalactiae
[5] = test system: Candida albicans
[6] = test system: Staphylococcus aureus CCARM 3090
[7] = test system: Salmonella typhimurium KCTC 1926
[8] = test system: Bacillus subtilis KCTC 1998
[9] = test system: Pseudomonas aeruginosa ATCC 27853
[10] = test system: Pseudomonas aeruginosa 4891
[11] = test system: Listeria monocytogenes KCTC 3710
[12] = test system: Trichosporon beigelii KCTC 7707
[13] = test system: Escherichia coli CCARM 1229
[14] = test system: Staphylococcus aureus CCARM 3518
[15] = test system: Escherichia coli CCARM 1238
[16] = test system: Escherichia coli ATCC 25922
[17] = test system: Staphylococcus aureus ATCC 25923
[18] = test system: Candida albicans KCTC 7270
[19] = test system: Pseudomonas aeruginosa 4007
[20] = test system: Staphylococcus epidermidis
[21] = test system: Enterococcus faecalis ATCC 29212
[22] = test system: Pseudomonas aeruginosa K799
[23] = test system: Listeria monocytogenes
[24] = test system: Salmonella enterica subsp. enterica serovar Typhimurium ATCC 14028s
[25] = test system: Escherichia coli UB1005
[26] = test system: Acinetobacter baumannii ATCC 19606
[27] = test system: Klebsiella pneumoniae ATCC 700603
[28] = test system: Escherichia coli BW25113 ΔsbmA
[29] = test system: Escherichia coli BW25113
[30] = test system: Salmonella enterica subsp. enterica serovar Typhimurium ATCC 14028
[31] = test system: Vibrio fluvialis
[32] = test system: Vibrio parahaemolyticus
[33] = test system: Aeromonas hydrophila
[34] = test system: Escherichia coli
[35] = test system: Vibrio alginolyticus

CC[C@H](C)[C@H](NC(=O)[C@H](C)NC(=O)[C@H](Cc1cnc[nH]1)NC(=O)[C@@H]1CCCN1C(=O)[C@@H](NC(=O)[C@H](CC(C)C)NC(=O)[C@H](CO)NC(=O)[C@H](CC(C)C)NC(=O)[C@@H](N)Cc1ccccc1)[C@@H](C)CC)C(=O)N[C@@H](CC(N)=O)C(=O)N[C@@H](C)C(=O)N[C@H](C(=O)N[C@@H](CO)C(=O)N[C@@H](C)C(=O)N[C@@H](CC(C)C)C(=O)N[C@@H](C)C(=O)N[C@@H](CC(N)=O)C(=O)N[C@@H](Cc1cnc[nH]1)C(=O)NCC(N)=O)C(C)C [FLSLIPHAINAVSALANHG] showed an MIC [1] of 8.2 µM (≈ 15.9 µg/mL), an MIC [2] of 4.1 µM (≈ 7.97 µg/mL) and an MIC [3] of 32.8 µM (≈ 63.8 µg/mL). The MIC [4] was 4.1 µM (≈ 7.97 µg/mL) and the MIC [5] was 8.2 µM (≈ 15.9 µg/mL).
In the case of CC[C@H](C)[C@H](NC(=O)CNC(=O)[C@H](CCC(N)=O)NC(=O)[C@H](Cc1ccccc1)NC(=O)[C@@H](NC(=O)[C@H](CCCCN)NC(=O)[C@H](CCCCN)NC(=O)[C@H](CC(C)C)NC(=O)[C@H](C)NC(=O)[C@H](CC(N)=O)NC(=O)[C@H](CC(C)C)NC(=O)CN)C(C)C)C(=O)N[C@@H](Cc1cnc[nH]1)C(=O)N[C@@H](CCC(=O)O)C(=O)N[C@@H](C)C(=O)N[C@H](C(=O)N[C@@H](CCCCN)C(=O)N[C@@H](CCCCN)C(=O)N[C@H](C(=O)N[C@@H](CC(N)=O)C(=O)N[C@@H](CC(N)=O)C(=O)N[C@@H](Cc1cnc[nH]1)C(=O)N[C@H](C(=O)N[C@@H](CCC(N)=O)C(N)=O)C(C)C)[C@@H](C)CC)[C@@H](C)CC [GLNALKKVFQGIHEAIKKINNHVQ], the MIC [6] is reported as 8 µM (≈ 21.6 µg/mL), the MIC [7] is reported as 4 µM (≈ 10.8 µg/mL) and the MIC [8] is reported as 8 µM (≈ 21.6 µg/mL). It also gave an MIC [9] of 2 µM (≈ 5.4 µg/mL), an MIC [10] of 8 µM (≈ 21.6 µg/mL) and an MIC [11] of 8 µM (≈ 21.6 µg/mL). The MIC [12] was at least 32 µM, the MIC [13] was 4 µM (≈ 10.8 µg/mL) and the MIC [14] was 8 µM (≈ 21.6 µg/mL). The MIC [15] was 4 µM (≈ 10.8 µg/mL), the MIC [16] was 4 µM (≈ 10.8 µg/mL) and the MIC [17] was 8 µM (≈ 21.6 µg/mL). It also gave an MIC [18] of at least 32 µM and an MIC [19] of 2 µM (≈ 5.4 µg/mL).
For CC[C@H](C)[C@@H]1NC(=O)[C@H](C(C)C)NC(=O)[C@H](C(C)C)NC(=O)[C@H]([C@@H](C)CC)NC(=O)[C@@H]2CCCN2C(=O)[C@@H](NC(=O)[C@H](CCCCN)NC(=O)[C@@H](N)CCCCN)CSSC[C@@H](C(=O)N[C@@H](CCCCN)C(=O)O)NC(=O)[C@H](C(C)C)NC(=O)[C@H](CCCN=C(N)N)NC1=O [KKCPIVVIRVCK], the MIC [20] was at least 46.2 µM, the MIC [21] was over 46.2 µM and the MIC [22] was at least 46.2 µM. The MIC [23] was 11.5 µM (≈ 16 µg/mL), the MIC [17] was over 46.2 µM and the MIC [24] was 23.1 µM (≈ 32 µg/mL). The MIC [25] was 11.5 µM (≈ 16 µg/mL).
CC[C@H](C)[C@H](NC(=O)[C@@H]1CCCN1)C(=O)N[C@@H](CCCN=C(N)N)C(=O)N[C@@H](CCCN=C(N)N)C(=O)N1CCC[C@H]1C(=O)N1CCC[C@H]1C(=O)N[C@H](C(=O)N[C@@H](CCCN=C(N)N)C(=O)N1CCC[C@H]1C(=O)N1CCC[C@H]1C(=O)N[C@@H](Cc1ccccc1)C(=O)N[C@@H](Cc1ccc(O)cc1)C(=O)N1CCC[C@H]1C(=O)N1CCC[C@H]1C(=O)N[C@@H](Cc1ccccc1)C(=O)N[C@@H](CCCN=C(N)N)C(=O)N1CCC[C@H]1C(=O)N1CCC[C@H]1C(=O)N[C@H](C(=O)N[C@@H](CCCN=C(N)N)C(=O)N1CCC[C@H]1C(=O)O)[C@@H](C)CC)[C@@H](C)CC [PIRRPPIRPPFYPPFRPPIRP] showed an MIC [9] of over 64 µM, an MIC [26] of over 64 µM and an MIC [27] of over 64 µM. It also gave an MIC [16] of over 64 µM, an MIC [17] of over 64 µM and an MIC [28] of at least 64 µM. For the same molecule, the MIC [29] was at least 64 µM and the MIC [30] was over 64 µM.
CC[C@H](C)[C@H](NC(=O)[C@@H]1CCCN1C(=O)[C@@H]1CCCN1C(=O)[C@H](CCCN=C(N)N)NC(=O)[C@H](Cc1ccccc1)NC(=O)[C@@H](N)CCCN=C(N)N)C(=O)N[C@@H](CCCN=C(N)N)C(=O)N[C@@H](CCCN=C(N)N)C(=O)N1CCC[C@H]1C(=O)N1CCC[C@H]1C(=O)N[C@H](C(=O)N[C@@H](CCCN=C(N)N)C(=O)N1CCC[C@H]1C(=O)N1CCC[C@H]1C(=O)N[C@@H](Cc1ccccc1)C(=O)O)[C@@H](C)CC [RFRPPIRRPPIRPPF] showed an MIC [9] of over 64 µM, an MIC [26] of over 64 µM and an MIC [27] of over 64 µM. The MIC [16] was 64 µM (≈ 122 µg/mL), the MIC [17] was over 64 µM and the MIC [28] was at least 64 µM. For the same molecule, the MIC [29] was at least 64 µM and the MIC [30] was over 64 µM.
Work on CC[C@H](C)[C@H](NC(=O)CNC(=O)[C@H](CCC(N)=O)NC(=O)[C@H](Cc1c[nH]c2ccccc12)NC(=O)[C@@H](NC(=O)[C@H](CCCCN)NC(=O)[C@H](CCCCN)NC(=O)[C@H](CC(C)C)NC(=O)[C@H](C)NC(=O)[C@H](CC(N)=O)NC(=O)[C@H](CC(C)C)NC(=O)[C@@H](N)Cc1c[nH]c2ccccc12)C(C)C)C(=O)N[C@@H](Cc1cnc[nH]1)C(=O)N[C@@H](CCC(=O)O)C(=O)N[C@@H](C)C(=O)N[C@H](C(=O)N[C@@H](CCCCN)C(=O)N[C@@H](CC(C)C)C(=O)N[C@H](C(=O)N[C@@H](Cc1c[nH]c2ccccc12)C(=O)N[C@@H](CC(N)=O)C(=O)N[C@@H](Cc1c[nH]c2ccccc12)C(=O)N[C@H](C(=O)N[C@@H](CCC(N)=O)C(N)=O)C(C)C)[C@@H](C)CC)[C@@H](C)CC [WLNALKKVWQGIHEAIKLIWNWVQ] yielded an MIC [6] of at least 32 µM, an MIC [7] of 16 µM (≈ 47.6 µg/mL) and an MIC [8] of at least 32 µM. It also gave an MIC [9] of 16 µM (≈ 47.6 µg/mL), an MIC [10] of at least 64 µM and an MIC [11] of at least 32 µM. For the same molecule, the MIC [12] was at least 32 µM, the MIC [13] was at least 32 µM and the MIC [14] was at least 32 µM. The MIC [15] was at least 32 µM, the MIC [16] was 16 µM (≈ 47.6 µg/mL) and the MIC [17] was 32 µM (≈ 95.2 µg/mL). For the same molecule, the MIC [18] was at least 32 µM and the MIC [19] was at least 64 µM.
CC[C@H](C)[C@H](NC(=O)[C@H](Cc1cnc[nH]1)NC(=O)[C@H](C)NC(=O)[C@@H](NC(=O)[C@H](CC(N)=O)NC(=O)[C@H](Cc1cnc[nH]1)NC(=O)[C@H](CC(C)C)NC(=O)[C@H](C)NC(=O)CNC(=O)[C@H](Cc1ccc(O)cc1)NC(=O)[C@@H](N)Cc1ccc(O)cc1)[C@@H](C)O)C(=O)N[C@H](C(=O)N[C@@H](CC(C)C)C(=O)NCC(=O)N[C@@H](CCCN=C(N)N)C(=O)O)C(C)C [YYGALHNTAHIVLGR] was tested, and the MIC [31] was at least 148 µM, the MIC [32] was at least 148 µM and the MIC [33] was at least 74.2 µM. The MIC [34] was 74.2 µM (≈ 125 µg/mL), the MIC [1] was over 148 µM and the MIC [35] was 9.26 µM (≈ 15.6 µg/mL).
